In patent US8246999B2, “Capped mesoporous silicates” (Iowa State University Research Foundation, Inc., priority 2003, dated 2012):
“Also recorded” adds a separate entry of the source. Where a name gives a salt, the structure may show the parent alone.

Tests used:
[1] = Loading of vancomycin and ATP into linker-MSN and capping with CdS (HPLC of filtrate); format: physicochemical; conditions: for amount of mesopore-encapsulated molecule per 100.0 mg of linker-MSN material: CdS-capped MSN, calculated from concentration decrease in filtrate, HPLC; for loading efficiency: CdS-capped linker-MSN
Experimental: Purified linker-MSN material from sub-part (b) below (100.00 mg) was incubated in a PBS buffer solution (0.60 mL, pH 7.4) of ATP or vancomycin (3.00 μmol in both cases) for 24 hours. Mercaptoacetic acid-functionalized CdS nanoparticles from sub-part (c) below (0.15 mmol) were dissolved in 2.00 mL of PBS buffer with vancomycin or ATP (0.01 mmol in both cases); 1-[3-(dimethylamino)propyl]-3-ethylcarbodiimide hydrochloride (EDC) (57.50 mg, 0.30 mmol) was added to the CdS/drug solution. The reaction mixture was allowed to stir for 24 hours, followed by centrifuging the suspension at 12 000 rpm for 3 minutes. The resulting precipitates (ATP- or vancomycin-loaded, CdS-capped MSNs) were isolated and dried under vacuum.
The resulting reaction suspensions were centrifuged, and the CdS-capped MSN/drug composite materials along with the unreacted CdS nanoparticles were filtered. The concentrations of the free vancomycin and ATP molecules in the filtrate were then determined by HPLC. The calculated concentration decreases of solution vancomycin and ATP were attributed to the amounts of mesopore-encapsulated vancomycin (2.5 μmol) and ATP (4.7 μmol) per 100.0 mg of linker-MSN material. These numbers correspond to ca. 83.9 and 30.3 mol % loading efficiency, respectively.

[2] = DTT-induced drug/neurotransmitter release study from CdS-capped MSN (HPLC); format: physicochemical; conditions: for amount released / portion of encapsulated molecules released: after 3 days of DTT-induced uncapping; for release as share of the total release seen in 3 days: within 24 hours after introduction of 18.5 mM DTT
Experimental: CdS-capped MSN with vancomycin or ATP (10.00 mg) material was dispersed in 1.50 mL of PBS buffer (pH 7.4), followed by repeating wash/sonication/centrifugation cycles for five times to remove physisorbed, uncapped vancomycin or ATP molecules on the exterior surface of the material. The purified MSN/drug composite was redispersed in 3.50 mL of PBS buffer (pH 7.4). Aliquots were taken every 4 hours over a time period of 12 hours from the MSN/water suspension and injected to an analytical HPLC system (Hitachi LC/3DQMS with a reverse phase C18 column (Vydac), 0.4 cm×25 cm) to monitor the leaching of the mesoporous channel encapsulated vancomycin or ATP molecules. After 12 hours, dithiothreitol (DTT, 18.50 mM) was added to the suspension to cleave the disulfide linkage between the CdS nanoparticle and the MSN. The kinetic profiles of the DTT-induced release of vancomycin and ATP were monitored by following two literature-reported HPLC separation conditions. The peaks/areas at 280 and 258 nm were monitored/integrated for the quantitative analysis of amounts of released vancomycin and ATP, respectively. See Farin, D., et al., J. Pharm. Biomed. Anal. 1998, 18, 367-372; and Veciana-Nogues, M. T., et al., Food Chem. 1997, 59, 467-472.

astrocytes = format: cell-based, rat
Experimental: • (i) Wistar rats, raised at Iowa State University, were used for these experiments. Animal care and experimental protocols were in accordance with the guidelines and approval of the Iowa State University Committee on Animal Care. • (ii) Cell Cultures. Enriched primary astrocyte cultures from neonatal (P0 to P3) rat cerebral cortex were prepared as previously described by Jeremic, A., et al., J. Neurochem. 2001, 77, 664-675. Briefly, freshly dissected cortical tissues from three animals were incubated 50 minutes at 37° C. in 2.00 mL of Earle's balanced salt solution (EBSS; Gibco-Invitrogen Co.) containing papain (1.54 mg/mL; Sigma-Aldrich Co.). After incubation, tissue was rinsed with EBSS solution and incubated for 5 minutes in trypsin-inhibitor solution (1 mg/mL; Gibco-Invitrogen Co.). After being rinsed, once with EBSS solution and once with culture medium (consisting of α-minimum essential medium (α-MEM; Gibco-Invitrogen Co.) supplemented with 10% heat-inactivated fetal bovine serum (FBS; Gibco-Invitrogen Co.) and 1.00 mL of penicillin-streptomycin solution (Sigma-Aldrich Co.) per 100 mL), the tissue was mechanically dispersed in culture medium by triturating through a fire-polished glass pipet. The cell suspension was transferred to sterile 15-mL centrifuge tubes and spun at 1000 g for 10 minutes. Cell pellets were resuspended in culture medium (α-MEM supplemented with 10% heat-inactivated FBS and 1.00 mL of penicillin-streptomycin solution per 100.00 mL) and plated in culture flasks. Cells were maintained at 37° C. in a humidified 5% CO2/95% air atmosphere. Culture medium was changed every 2 to 3 days. When mixed cultures reached confluence (9-12 days), the flasks were shaken (260 rpm) for 90 minutes to remove microglia and dividing type I astroglia. After shaking the cells, medium was replaced, and the flasks were incubated for 1 hour to equilibrate with CO2 in the fresh medium. Cultures were then shaken overnight (12-18 hours) at 260 rpm at 37° C. Cultures enriched in type I astroglia were obtained by trypsinizing (0.25%; Sigma-Aldrich Co.) attached cells for 5 minutes. […]

[3] = literature reports; cited from earlier work

| SMILES | amount of mesopore-encapsulated molecule per 100.0 mg of linker-MSN material [1] [µmol] | loading efficiency [1] | amount released [2] [µmol] | portion of encapsulated molecules released [2] [%] | release as share of the total release seen in 3 days [2] [%] | [Ca^2+]i response of astrocytes to ATP (astrocytes; 100.0 μM ATP perfusion, no MSNs, ME-treated astrocytes, triphosphate disodium salt) | [Ca^2+]i response of astrocytes to ATP in presence of empty capped MSNs (astrocytes; 100.0 μM ATP perfusion, CdS-capped MSNs without ATP encapsulation present, triphosphate disodium salt) | [Ca^2+]i response of astrocytes to ME (astrocytes; ME 1.0 mM for 5 minutes, without MSNs) | isoelectric point (pI) [3] |
| --- | --- | --- | --- | --- | --- | --- | --- | --- | --- |
| Nc1ncnc2c1ncn2[C@@H]1O[C@H](COP(=O)([O-])OP(=O)([O-])OP(=O)(O)O)[C@@H](O)[C@H]1O.[Na+].[Na+] [ATP, adenosine triphosphate disodium salt] | 4.7 | ~30.3 mol % | 1.3 | 28.2 | 85 | obvious increases in [Ca^2+]i | [Ca^2+]i increased; also recorded: An increase in [Ca^2+]i |  |  |
| OCCS [ME] |  |  |  |  |  |  |  | no increase in [Ca^2+]; also recorded: failed to produce any [Ca^2+]i response |  |
| CN[C@H](CC(C)C)C(=O)N[C@H]1C(=O)N[C@@H](CC(N)=O)C(=O)N[C@H]2C(=O)N[C@H]3C(=O)N[C@H](C(=O)N[C@H](C(=O)O)c4cc(O)cc(O)c4-c4cc3ccc4O)[C@H](O)c3ccc(c(Cl)c3)Oc3cc2cc(c3O[C@@H]2O[C@H](CO)[C@@H](O)[C@H](O)[C@H]2O[C@H]2C[C@](C)(N)[C@H](O)[C@H](C)O2)Oc2ccc(cc2Cl)[C@H]1O [vancomycin, Vancomycin hydrochloride] | 2.5 | ca. 83.9 mol % | 1.6 | 53.8 | 85 |  |  |  | 8.3 |
